This assay relates to BDF1 mice, B16 melanoma ip, median survival T/C. The experiment in a line: NCI In Vivo Anticancer Drug Screen. Data for tumor model B16 Melanoma (intraperitoneal) in B6D2F1 (BDF1) mice. Particulars: endpoint: median survival time, higher = longer survival. Put shortly: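 Vehicle-treated animals serve as the reference (C); treated animals (T) are scored for survival or tumor size after tumor transplantation.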

Setting [1] is: dose: 100.0 mg/kg/injection, schedule: Q01DX009 (ip), vehicle: other.
The mark [2] stands for this setting: dose: 200.0 mg/kg/injection, schedule: Q01DX009 (ip), vehicle: other.
Where [3] appears, read: dose: 12.5 mg/kg/injection, schedule: Q01DX009 (ip), vehicle: saline with Tween-80.
[4] abbreviates: dose: 25.0 mg/kg/injection, schedule: Q01DX009 (ip), vehicle: saline with Tween-80.
Setting [5] is: dose: 100.0 mg/kg/injection, schedule: Q01DX009 (ip), vehicle: Klucel (hydroxypropylcellulose) (HPC).
The mark [6] stands for this setting: dose: 25.0 mg/kg/injection, schedule: Q01DX009 (ip), vehicle: Klucel (hydroxypropylcellulose) (HPC).
The mark [7] stands for this setting: dose: 50.0 mg/kg/injection, schedule: Q01DX009 (ip), vehicle: Klucel (hydroxypropylcellulose) (HPC).
The mark [8] stands for this setting: dose: 200.0 mg/kg/injection, schedule: Q01DX009 (ip), vehicle: Klucel (hydroxypropylcellulose) (HPC).
The mark [9] stands for this setting: dose: 6.25 mg/kg/injection, schedule: Q01DX009 (ip), vehicle: Klucel (hydroxypropylcellulose) (HPC).
Setting [10] is: dose: 12.5 mg/kg/injection, schedule: Q01DX009 (ip), vehicle: Klucel (hydroxypropylcellulose) (HPC).
Where [11] appears, read: dose: 3.12 mg/kg/injection, schedule: Q01DX009 (ip), vehicle: Klucel (hydroxypropylcellulose) (HPC).

“And” between values parts separate entries of the source, which are not always exact repeats. Identical values can stand only once. Inconclusive results and toxic doses are left out.

`OCc1ccccc1NCc1ccccc1`: the T/C under setting [1] is 91 % of control and 109 % of control; the T/C under setting [2] is 100 % of control; the T/C (dose: 400.0 mg/kg/injection, schedule: Q01DX009 (ip), vehicle: other) was 95 % of control and 98 % of control.

As to `O=C(Nc1cccc(Cl)c1)ON1C(=O)C2C(C1=O)C1(Cl)C(Cl)C(Cl)C2(Cl)C1(Cl)Cl` (stereo not drawn), the T/C reads like this: under setting [3], 87 % of control; under setting [4], 96 % of control.

As for `CCCCCCC(=O)C(CCCC)(C(=O)OCC)C(=O)OCC`, under setting [5], the T/C was 89 % of control.

Consider `CCc1ccccc1NC(=O)Nc1ccc(OC)cc1`, for which the T/C under setting [6] is 95 % of control and the T/C under setting [7] was 87 % of control.

Regarding `Cc1ccc(NC(=O)Nc2ccc(C)c(NC(=O)Nc3ccc(C)c(Cl)c3)c2)cc1Cl`, the T/C is, setting by setting: (dose: 6.25 mg/kg/injection, schedule: Q01DX009 (ip), vehicle: saline with Tween-80) 99 % of control; under setting [3], 90 % of control; under setting [4], 99 % of control.

As for `CCCCCCCCCCCCCCCC(C)(C)O`, the T/C under setting [5] is 100 % of control; the T/C under setting [8] is 100 % of control; the T/C (dose: 400.0 mg/kg/injection, schedule: Q01DX009 (ip), vehicle: Klucel (hydroxypropylcellulose) (HPC)) is 86 % of control.

For the compound `CCCCCCCCCCCC(=O)CC`, the T/C was 96 % of control under setting [1] and 87 % of control under setting [2].

Regarding `C[n+]1cccc(NC(=O)c2ccc(NC(=O)C34CCC(C(=O)Nc5ccc(C(=O)Nc6ccc[n+](C)c6)cc5)(CC3)CC4)cc2)c1`, the T/C (dose: 10.0 mg/kg/injection, schedule: Q01DX009 (ip), vehicle: saline with Tween-80) was 154 % of control.

In the case of `COC(=O)CC(N)C(=O)O` (stereo not drawn), the T/C is 101 % of control (dose: 12.5 mg/kg/injection, schedule: Q01DX009 (ip), vehicle: saline); 103 % of control (dose: 25.0 mg/kg/injection, schedule: Q01DX009 (ip), vehicle: saline); 113 % of control (dose: 50.0 mg/kg/injection, schedule: Q01DX009 (ip), vehicle: saline); 104 % of control (dose: 100.0 mg/kg/injection, schedule: Q01DX009 (ip), vehicle: saline); 89 % of control (dose: 200.0 mg/kg/injection, schedule: Q01DX009 (ip), vehicle: saline).

Take `CC1(C)N=C(N)N=C(N)N1c1cccc(Cl)c1`: the T/C (dose: 5.0 mg/kg/injection, schedule: Q01DX009 (ip), vehicle: saline) is 115 % of control; the T/C (dose: 10.0 mg/kg/injection, schedule: Q01DX009 (ip), vehicle: saline) is 115 % of control; the T/C (dose: 10.0 mg/kg/injection, schedule: Q04DX003 (ip), vehicle: saline) is 118 % of control; the T/C (dose: 20.0 mg/kg/injection, schedule: Q01DX009 (ip), vehicle: saline) is 120 % of control; the T/C (dose: 20.0 mg/kg/injection, schedule: Q04DX003 (ip), vehicle: saline) was 117 % of control; the T/C (dose: 40.0 mg/kg/injection, schedule: Q01DX009 (ip), vehicle: saline) is 120 % of control.

As for `Nc1cc(Cl)cc(Cl)c1C(=O)O`, the T/C reads like this: (dose: 50.0 mg/kg/injection, schedule: Q04DX003 (ip), vehicle: other) 102 % of control; (dose: 100.0 mg/kg/injection, schedule: Q04DX003 (ip), vehicle: other) 100 % of control; (dose: 200.0 mg/kg/injection, schedule: Q04DX003 (ip), vehicle: other) 102 % of control.

`NC(=O)C(Br)CBr` (stereo not drawn): the T/C was 92 % of control under setting [6]; 111 % of control under setting [4]; 105 % of control under setting [7]; 108 % of control (dose: 50.0 mg/kg/injection, schedule: Q01DX009 (ip), vehicle: saline with Tween-80); 107 % of control under setting [5]; 106 % of control (dose: 100.0 mg/kg/injection, schedule: Q01DX009 (ip), vehicle: saline with Tween-80).

With `S=C(N=Nc1ccccc1)NNc1ccccc1`, the T/C (dose: 18.8 mg/kg/injection, schedule: Q04DX003 (ip), vehicle: saline with Tween-80) was 102 % of control; the T/C (dose: 18.9 mg/kg/injection, schedule: Q01DX009 (ip), vehicle: saline with Tween-80) was 88 % of control; the T/C (dose: 37.5 mg/kg/injection, schedule: Q01DX009 (ip), vehicle: saline with Tween-80) was 93 % of control; the T/C (dose: 37.5 mg/kg/injection, schedule: Q04DX003 (ip), vehicle: saline with Tween-80) was 92 % of control; the T/C (dose: 75.0 mg/kg/injection, schedule: Q04DX003 (ip), vehicle: saline with Tween-80) is 92 % of control; the T/C (dose: 150.0 mg/kg/injection, schedule: Q04DX003 (ip), vehicle: saline with Tween-80) is 97 % of control.

For `CC(=O)CC(=O)Nc1cc(Cl)ccc1C`, the T/C runs as follows: under setting [7], 105 % of control; under setting [5], 92 % of control; under setting [8], 94 % of control.

For the compound `IP(c1ccccc1)(c1ccccc1)(c1ccccc1)N1C2CCCCC21` (stereo not drawn), the T/C was 115 % of control (dose: 0.15 mg/kg/injection, schedule: Q01DX009 (ip), vehicle: saline); 111 % of control (dose: 0.3 mg/kg/injection, schedule: Q01DX009 (ip), vehicle: saline); 111 % of control (dose: 0.6 mg/kg/injection, schedule: Q01DX009 (ip), vehicle: saline); 92 % of control (dose: 1.2 mg/kg/injection, schedule: Q01DX009 (ip), vehicle: saline).

As for `CNc1ccccc1Cc1ccccc1`, the T/C under setting [7] was 103 % of control, the T/C under setting [5] was 90 % of control and the T/C under setting [8] is 99 % of control.

On to `COc1ccc2c(Cc3ccccc3)cncc2c1O`, for which the T/C was 97 % of control under setting [9], 99 % of control under setting [10], 102 % of control under setting [6] and 104 % of control under setting [7].

Regarding `CC(Cc1ccccc1)NC(=O)CCNNC(=O)c1ccncc1` (stereo not drawn), the T/C reads like this: (dose: 0.39 mg/kg/injection, schedule: Q01DX009 (ip), vehicle: Klucel (hydroxypropylcellulose) (HPC)) 95 % of control; (dose: 0.78 mg/kg/injection, schedule: Q01DX009 (ip), vehicle: Klucel (hydroxypropylcellulose) (HPC)) 87 % of control; (dose: 1.56 mg/kg/injection, schedule: Q01DX009 (ip), vehicle: Klucel (hydroxypropylcellulose) (HPC)) 90 % of control; under setting [11], 95 % of control; under setting [9], 89 % of control; under setting [10], 91 % of control.

`Cc1cc(C)c(NC(=O)Nc2ccc(Cl)cc2)c(C)c1`: the T/C is, setting by setting: under setting [5], 93 % of control; under setting [8], 93 % of control.

On to `O=C(NO)c1ccncc1`, for which the T/C was 96 % of control (dose: 25.0 mg/kg/injection, schedule: Q01DX009 (ip), vehicle: water); 106 % of control and 111 % of control (dose: 50.0 mg/kg/injection, schedule: Q01DX009 (ip), vehicle: water); 93 % of control and 105 % of control (dose: 100.0 mg/kg/injection, schedule: Q01DX009 (ip), vehicle: water); 100 % of control (dose: 200.0 mg/kg/injection, schedule: Q01DX009 (ip), vehicle: water); 93 % of control (dose: 300.0 mg/kg/injection, schedule: Q01DX009 (ip), vehicle: water); 100 % of control (dose: 400.0 mg/kg/injection, schedule: Q01DX009 (ip), vehicle: water). Further, the T/C (dose: 600.0 mg/kg/injection, schedule: Q01DX009 (ip), vehicle: water) is 105 % of control and 107 % of control; the T/C (dose: 700.0 mg/kg/injection, schedule: Q01DX009 (ip), vehicle: water) is 100 % of control.

`C1CCC2OCCOCCOC3CCCCC3OCCOCCOC2C1` (stereo not drawn): the T/C is 91 % of control and 95 % of control under setting [11]; 95 % of control and 107 % of control under setting [9]; 106 % of control and 111 % of control under setting [10]; 108 % of control and 121 % of control under setting [6]; 98 % of control under setting [7].

(Values after PubChem BioAssay AID192 (DTP/NCI, 2004).)
